According to ChEMBL document CHEMBL3861944 (Medchemcomm, 2016):

How the values were obtained:
THP-1 = test: Pro-apoptotic activity in human THP1 cells assessed as late apoptotic cells at 10 uM after 24 hrs by annexin V/propidium iodide staining-based flow cytometric method (reference value: 0.4 +/- 0.1%); format: functional
[1] = Cell cycle arrest in human THP1 cells assessed as accumulation at S phase at 3 uM after 24 hrs by flow cytometric method (reference value: 16 +/- 2%); format: functional, cell-based; conditions: THP-1
[2] = Cell cycle arrest in human THP1 cells assessed as accumulation at G0/G1 phase at 10 uM after 24 hrs by flow cytometric method (reference value: 51 +/- 6%); format: functional, cell-based; conditions: THP-1
[3] = Cell cycle arrest in human AsPC1 cells assessed as accumulation at G0/G1 phase at 1 uM after 24 hrs by flow cytometric method (reference value: 48 +/- 7%); format: functional, cell-based
[4] = Cell cycle arrest in human AsPC1 cells assessed as accumulation at S phase at 1 uM after 24 hrs by flow cytometric method (reference value: 23 +/- 3%); format: functional, cell-based
[5] = Cell cycle arrest in human AsPC1 cells assessed as accumulation at S phase at 30 uM after 24 hrs by flow cytometric method (reference value: 23 +/- 3%); format: functional, cell-based
[6] = Cell cycle arrest in human AsPC1 cells assessed as accumulation at S phase at 50 uM after 24 hrs by flow cytometric method (reference value: 23 +/- 3%); format: functional, cell-based
[7] = Cell cycle arrest in human AsPC1 cells assessed as accumulation at S phase at 75 uM after 24 hrs by flow cytometric method (reference value: 23 +/- 3%); format: functional, cell-based

Which results are given for `NC(=[Se])N/N=C/c1cccc2cccnc12`?
Activity (THP-1): 49%; Activity [1]: 27%; Activity [2]: 45%; Activity [3]: 53.8%; Activity [4]: 35.5%; Activity [5]: 22.5%; Activity [6]: 26%; Activity [7]: 22.3%
